# Source: paper PMC4778124, “A continuous sirtuin activity assay without any coupling to enzymatic or chemical reactions” (Scientific Reports, 2016)
# Structures can show the parent of a compound that is named as a salt. Where two headings read alike, the source gives them in different places. Starred links: 1 amine or outer side, 2 acyl side, 3 side chain; linkers in the order of their positions; H or OH if unused. Positions of bridges follow the written chain, without caps; N, C: chain ends. Non-standard residues stand in square brackets, D forms with d. Residues, ends and D or L forms follow the SMILES beside them. *: point of attachment. X1 = CCCCCCCCCCCCCC(=S)N(C)CCCC[C@H](N[*:1])C(=O)[*:2]; Tfa = O=C(C(F)(F)F)*
# Legend:
# Sirt6 [1] = system: Sirt6; design: method as in PMID 25004411; conditions: cited from earlier work; for inhibition of enzymatic activity: 200 μM concentration
# Sirt6 [2] = molecular target: T1, Sirt6 (Homo sapiens, UniProt Q8N6T7); assay: Ki determination with substrate 3, 96-well MTP fluorescence reader; assay type: biochemical; conditions: for type of inhibition with respect to the peptide substrate: Sirt6, substrate 3
# T1 construct: His-tag; made in house; host or cells: E. coli BL21 DE3
# Protocol: All measurements were done in duplicates.
# (§1) Supplementary Figure S13. […] Data are presented as mean ± s.d. (n=2) and lines represent the Michaelis-Menten-plot (left) and secondary plots (right). The apparent KM or Vmax^app-1 values from v/[S] characteristics were plotted against the corresponding inhibitor concentration.
# as §1, with “S14. […] The reactions were performed with 0.5 µM Sirt6 and either 500 µM NAD^+ and varying concentrations of 3 (2-100 µM).” for “S13.”, “apparent” for “apparent KM or”
# Supplementary Figure S15. Kinetic characteristics for sirtuin inhibitor 8. The reactions were performed with 0.01 µM Sirt2 /0.1 µM Sirt3 /0.5 µM Sirt6 and 500 µM NAD^+ and varying concentrations of 3 (0.07-100 µM). […] Data are presented as mean ± s.d. (n=2) and lines represent the Michaelis-Menten-plot (left) and secondary plots (right). The apparent Vmax^app-1 values from v/[S] characteristics were plotted against the corresponding inhibitor concentration.
# Sirt2 = molecular target: T2, Sirt2 (Homo sapiens, UniProt Q8IXJ6); assay: as above; assay type: biochemical
# T2 construct: made in house
# T2 sequence (Q8IXJ6 1-389): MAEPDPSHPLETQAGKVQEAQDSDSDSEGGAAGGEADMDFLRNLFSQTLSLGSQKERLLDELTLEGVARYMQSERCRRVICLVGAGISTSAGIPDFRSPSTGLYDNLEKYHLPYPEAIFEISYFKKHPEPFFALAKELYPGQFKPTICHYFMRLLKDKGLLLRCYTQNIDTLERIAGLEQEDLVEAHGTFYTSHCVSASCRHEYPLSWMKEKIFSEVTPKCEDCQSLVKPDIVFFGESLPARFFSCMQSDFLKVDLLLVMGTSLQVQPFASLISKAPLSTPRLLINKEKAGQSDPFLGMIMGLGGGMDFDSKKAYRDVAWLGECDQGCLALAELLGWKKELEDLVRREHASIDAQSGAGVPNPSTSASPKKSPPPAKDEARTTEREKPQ
# Protocol: The microtiter plate fluorescence measurements were performed on a Tecan Infinite M200 microplate reader (Maennedorf, Switzerland) at λEx = 320 nm and λEm = 408 nm (lag time 9 μs, integration time […], gain 160, 170 or 182). The reactions (total volume 100 μl) were measured in black low-binding 96-well microtiter plates (NUNC). Assay-buffer, 500 μM NAD^+ and 0.07–200 μM peptide substrate were pre-incubated at 37 °C for 5 min. The reaction was started by adding human sirtuin (0.01–0.5 μM). The signals were converted into product concentration via calibration lines and the resulting data were evaluated as described above (single fluorescence measurement). The determination for the kinetic constants of NAD^+ was performed in the same way, except that the peptide concentration was fixed (5, 25 or 200 μM) and the NAD^+ concentration was varied (10–1500 μM). All measurements were done in duplicates. The reaction mixture for the calibration lines was prepared as described for the single fluorescence measurements. […] The resulting plots were analyzed by a competitive inhibition and non-competitive inhibition model using the program Sigma Plot 8. The linear regression of the apparent KM-values against the corresponding inhibitor concentration yielded the inhibitor constant Ki for competitive inhibition. The Ki for non-competitive inhibition was determined by linear regression of 1/apparent Vmax against the corresponding inhibitor concentration. The negative Ki value can be determined as intersection with the X-axis from these plots.
# Supplementary Figure S15. Kinetic characteristics for sirtuin inhibitor 8. The reactions were performed with 0.01 µM Sirt2 /0.1 µM Sirt3 /0.5 µM Sirt6 and 500 µM NAD^+ and varying concentrations of 3 (0.07-100 µM). […] The negative Ki value can be determined as intersection with the X-axis from the Vmax^app-1/I plot.
# Supplementary Figure S16. […] The negative Ki value can be determined as intersection with the X-axis from the Vmax^app-1/I plot.
# Supplementary Figure S17. […] The negative Ki value can be determined as intersection with the X-axis from the Vmax^app-1/I plot.
# Sirt6 [3] = molecular target: T1, Sirt6; assay: Isomer specific inhibition by thioxo peptides, HPLC; assay type: biochemical; conditions: substrate 2a
# Protocol: After 30 min incubation at 20 °C reaction was stopped using 10% TFA solution. Inhibitor solutions were irradiated at 254 nm for 5 min. Separated isomers were applied in concentrations from 1 to 10 μM. The influence of cis content on sirtuin inhibition using fluorescence spectrometer was determined with 500 μM NAD^+, 5 μM 3, 0.1 μM Sirt2 and 0.1 μM 9. Reactions were done at 20 °C with 9 in GS and PSS (after 5 min irradiation at 254 nm). 9 in PSS was applied immediately after irradiation (transfer time ~5 s) and started directly by adding sirtuin. Reactions were measured within 1 min to avoid re-isomerization.
# Supplementary Figure S36. Determination of IC50 value of 8 for Sirt6 in GS (?) and PSS (π). Data were fitted with U(%) = Umin(%) + (Umax(%) – Umin(%))/(1+10^(x-logIC50)) with U(%) percental turmover of substrate 2a; Umin(%) lowest turnover of substrate; Umax(%) maximal turnover of substrate (n=3).
# Supplementary Figure S37. Inhibition of Sirt6 by 8 (?) and 9 (π).Data were fitted with U(%) = Umin(%) + (Umax(%) – Umin(%))/(1+10^(x-logIC50)) with U(%) percental turmover of substrate; Umin(%) lowest turnover of substrate 2a; Umax(%) maximal turnover of substrate (n=3).
# Supplementary Figure S38. Determination of IC50 of 9 for Sirt6 with 72.4 % cis- (π) and 70.3 % (?) trans-content. Measurements were done with 10 µM peptide substrate (big figure) or 30 µM (small figure). Data were fitted with U(%) = Umin(%) + (Umax(%) – Umin(%))/(1+10^(x-logIC50)) with U(%) percental turmover of substrate 2a; Umin(%) lowest turnover of substrate; Umax(%) maximal turnover of substrate (n=3).
# Sirt1 = molecular target: T3, Sirt1 (Homo sapiens, UniProt Q96EB6); assay: HPLC based activity assay, influence of resveratrol on Sirt1 mediated deacylation of 3; assay type: biochemical; conditions: 0-100 µM resveratrol; Sirt1 0.5 µM, 3 20 µM, NAD+ 500 µM, 60 minutes at 37°C
# T3 construct: made in house
# T3 sequence (Q96EB6 1-747): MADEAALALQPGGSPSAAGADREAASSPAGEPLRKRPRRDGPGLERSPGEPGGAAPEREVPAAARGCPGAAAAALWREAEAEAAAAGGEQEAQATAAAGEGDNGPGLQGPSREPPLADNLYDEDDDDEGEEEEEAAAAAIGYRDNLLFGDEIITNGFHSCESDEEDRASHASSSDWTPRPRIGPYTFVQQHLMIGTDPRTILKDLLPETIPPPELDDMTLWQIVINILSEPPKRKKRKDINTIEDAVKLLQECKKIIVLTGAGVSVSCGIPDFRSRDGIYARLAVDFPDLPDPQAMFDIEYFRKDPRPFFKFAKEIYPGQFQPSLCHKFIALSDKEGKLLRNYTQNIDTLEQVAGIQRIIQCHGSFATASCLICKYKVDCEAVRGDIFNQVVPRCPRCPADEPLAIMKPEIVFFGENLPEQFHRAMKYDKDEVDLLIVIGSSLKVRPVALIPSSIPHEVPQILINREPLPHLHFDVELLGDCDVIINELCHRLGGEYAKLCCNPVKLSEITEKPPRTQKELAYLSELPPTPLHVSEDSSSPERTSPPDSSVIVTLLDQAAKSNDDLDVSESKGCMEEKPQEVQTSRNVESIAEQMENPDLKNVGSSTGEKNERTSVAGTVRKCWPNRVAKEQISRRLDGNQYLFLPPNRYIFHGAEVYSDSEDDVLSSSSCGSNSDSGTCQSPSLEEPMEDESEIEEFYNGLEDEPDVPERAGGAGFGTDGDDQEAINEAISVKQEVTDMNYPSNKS
# Protocol: For the determination of kinetic constants for all sirtuin mediated reactions solutions containing 20 mM TRIS/HCl pH 7.8, 150 mM NaCl, 5 mM MgCl2 (assay-buffer), 500 μM NAD^+ and varying substrate concentrations (0.5–100 μM) were used. Deacylation was started by adding human sirtuin to reach a final concentration of 0.01–0.5 μM. Enzyme-catalyzed reaction was stopped using TFA (1% final concentration) after 1 min to 180 min of incubation at 37 °C depending on substrate reactivity. The cleavage rate of the different TNFα peptide derivatives was analyzed using analytical reversed phase HPLC. 40 to 80 μl of compounds or reaction solutions were injected and separated using a linear gradient from 5% to 95% solvent B within 6min. The product and substrate peaks were quantified using absorbance at 220 nm or 365 nm (absorption of 3-Nitrotyrosyl moiety). The peak areas were integrated and converted to initial velocity rates calculated from the ratio of product area to total peak area. Linear regression of conversions plotted against time yielded reaction rates in μM/min (relative conversion below 20% of substrate). […]
# Supplementary Figure S4. […] Reaction was stopped using TFA (1% final concentration) and the consumption of 3 was analyzed using HPLC. […]
# T1 sequence (Q8N6T7 whole entry): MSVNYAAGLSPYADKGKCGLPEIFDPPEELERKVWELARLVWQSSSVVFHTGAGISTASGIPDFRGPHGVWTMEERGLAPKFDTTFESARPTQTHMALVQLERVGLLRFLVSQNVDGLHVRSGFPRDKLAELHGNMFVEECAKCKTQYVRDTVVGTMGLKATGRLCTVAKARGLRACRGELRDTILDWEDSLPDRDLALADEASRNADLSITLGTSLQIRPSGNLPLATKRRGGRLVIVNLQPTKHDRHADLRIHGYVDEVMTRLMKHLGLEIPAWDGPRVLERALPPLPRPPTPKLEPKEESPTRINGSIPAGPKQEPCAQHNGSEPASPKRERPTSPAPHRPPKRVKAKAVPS
structure (smiles),measurement,setting,value
NC(=O)C1CCCc2c1[nH]c1ccc(Cl)cc21 (centres unmarked) [Ex-527],inhibition of enzymatic activity,Sirt6 [1],56%
same,Ki,"Sirt6 [2]; Sirt6 0.5 µM, varying substrate 3, 500 µM NAD+ (saturating)",100 ± 11 µM
same,type of inhibition with respect to the peptide substrate,Sirt6 [2],non-competitive
O=c1c(O)c(-c2ccc(O)c(O)c2)oc2cc(O)cc(O)c12 [Quercetin],inhibition of enzymatic activity,Sirt6 [1],52%
same,type of inhibition with respect to the peptide substrate,Sirt6 [2],non-competitive
CC(C)[C@@H]1NC(=O)[C@H](Cc2c[nH]cn2)NC(=O)[C@H](Cc2ccc(O)cc2)NC(=O)[C@H]([C@@H](C)O)NC(=O)[C@H](Cc2c[nH]cn2)NC(=O)[C@H](Cc2ccc(O)cc2)NC(=O)CSC[C@@H](C(N)=O)NC(=O)[C@H](Cc2ccc(O)cc2)NC(=O)[C@H](Cc2ccc(O)cc2)NC(=O)[C@H](CC(N)=O)NC(=O)[C@H]([C@@H](C)O)NC(=O)[C@H](CCCNC(=N)N)NC(=O)[C@H](CCCNC(=N)N)NC(=O)[C@H](CCCCNC(=O)C(F)(F)F)NC1=O [S2iL5] ({CH2CO}-YHTYHVK(Tfa)RRTNYYC-NH2; thioether N-14),Ki,"Sirt2; Sirt2 0.01 µM, varying substrate 3, 500 µM NAD+, read-out: Ki (3)",0.6 ± 0.2 µM
same,Ki,"Sirt2; Sirt2, substrate 3, read-out: Ki-value",0.56 µM
CCCCCCCCCCCCCC(=S)N(C)CCCC[C@H](NC(=O)[C@H](CCCCN)NC(=O)[C@@H]1CCCN1C(=O)[C@H](CC(C)C)NC(=O)[C@H](C)NC(=O)[C@H](CCC(=O)O)NC(C)=O)C(=O)N[C@H](C(=O)NCC(=O)NCC(N)=O)[C@@H](C)O [compound 9] (Ac-EALPK[X1]TGG-NH2),IC50,Sirt6 [3]; inhibitor with 29.7% cis isomer (HPLC-separated),1.7 ± 0.5 µM
same,IC50,Sirt6 [3]; inhibitor with 72.4% cis isomer (HPLC-separated),0.6 ± 0.1 µM
Oc1ccc(/C=C/c2cc(O)cc(O)c2)cc1 [resveratrol],influence on Sirt1 mediated deacylation of 3,Sirt1,no significant influence
